The source of these data is patent US20060116390A1, “Hepatitis c virus inhibitors” (priority 2003, published 2006).

Like-named read-outs stand apart in the source and are kept apart here.

One may read the IC50 as the concentration needed to halve the response being measured.

This experiment has as its system HCV proteins in Rep5.1 cells (replicon cell line). The experiment can be described thus: Inhibitory activity of HCV: cell-based ELISA in replicon cell line Rep5.1 (decrease of HCV proteins). To be noted: Hepatitis C virus, 72 h. Further details: species or system hepatitis C virus. The method, then:
In order to, screen and evaluate the anti-HCV therapeutic agents in cell level, the following experiments are carried out using a replicon cell line, Rep5.1 [Lohmann, et al., Replication of subgenomic hepatitis C virus RNAs in a hepatoma cell line. Science 285:110-113 (1999)].
Rep5.1 cells, the replicon cell line, are cultured in DMEM-10 containing 500 μg/ml of G418. The Rep5.1 cells in log phase are suspended by trypsin treatment, and 5000 cells are distributed to each well of a 96-well plate. After 4 hours when the cells are attached to the plate, the serially diluted drug is added to each well. After 48 hours, a part of the treated cells are observed by microscope, and MTT assay is carried out to evaluate the drug toxicity. The cytotoxicity is estimated in percentage based on the control containing no drug. After 72 hours, the remaining cells are fixed by methanol/acetone (50/50, v/v), and the decrease of HCV proteins is measured by using HCV antibody. The extent of decrease is estimated in percentage based on the control containing no drug, and the concentration of drug at which 50% of proteins is decreased is determined to be IC50. The compounds showing activity via this procedure are validated by Western blotting. In order to find out whether the decrease of HCV protein is related to the decrease of replicon RNA, Rep5.1 cell is treated with some selected drugs for 72 hours, RNA is purified, dot blotted, and hybridized with isotope labelled nucleic acid to determine the amounts of actin mRNA and replicon RNA, and finally the amount of RNA is compared.
Plasma samples from 300 persons positive to the hepatitis C antibody test were screened by antibody diagnosis kit produced by LG life Sciences Ltd. (LG HCD3.0 TMB) to select 40 plasma samples having high titer. Replicon cell line and Huh-7 cell line each were cultured in a 96-well cell culture plate, fixed by methanol/acetone (1:1) mixture, and blocked by 3% skimmed milk. The 40 plasma sanples selected above were 100-fold diluted and aided thereto, and the bound antibodies were probed by anti-Human goat antibody (Sigma) to which Horse Radish Peroxidase is attached. As a result, 12 plasma samples having low specificity to Huh-7 cell line, but high specificity to replicon cell line were obtained. These plasma samples were used in the following cell-based ELISA.
Rep5.1 cells were cultured in DMEM-10 containing 500 μg/ml of G418. The Rep5.1 cells in log phase were suspended by trypsin treatment, and 5000 cells were distributed to each well of a 96-well pate. After 4 hours for which the cells were attached to the plate, the serially diluted drug was added to each well. After 72 hours, the cells were fixed by methanol/acetone (50/50, v/v), and the decrease of HCV proteins was measured by using HCV antibody obtained as above. The extent of decrease was estimated in percentage based on the control containing no drug, and the concentration of drug at which 50% of proteins was decreased was determined to be IC50.
On the technique in general: In an ELISA, binding on a coated surface is turned into a signal by an enzyme label.

Setting [1] is: Rep5.1 cells, 72 hours with drug, concentration at which 50% of HCV proteins was decreased, Table 2, read-out: IC50.
The mark [2] stands for this setting: Rep5.1 cells, 72 hours with drug, decrease of HCV proteins measured by HCV antibody, Table 1, read-out: Level (IC50 values classified).

For the compound `CC1=C(C(=O)OCCCc2cc3ccccc3s2)C(CF)NC(=S)N1` (stereo not shown) [58′, 4-fluoromethyl-6-methyl-2-thioxo-1,2,3,4-tetrahydro-pyrimidine-5-carboxylic acid 3-benzo[b]thiophen-2-yl-propyl ester], the IC50 was 8 µM under setting [1] and 1 to 10 µM under setting [2].

`CCCN(c1ccc(CCOC(=O)C2=C(C)NC(=S)NC2CO)cc1[N+](=O)[O-])C1CC1` (stereo not shown) [95″, 4-Hydroxymethyl-6-methyl-2-thioxo-1,2,3,4-tetrahydro-pyrimidine-5-carboxylic acid 2-[4-(cyclopropyl-propyl-amino)-3-nitro-phenyl]-ethyl ester]: the IC50 runs as follows: under setting [1], 0.6 µM; under setting [2], less than 1 µM.

In the case of `CC1=C(C(=O)OCc2ccc(F)cc2Cl)C(CF)NC(=S)N1` (stereo not shown) [79′, 4-fluoromethyl-6-methyl-2-thioxo-1,2,3,4-tetrahydro-pyrimidine-5-carboxylic acid 2-chloro-4-fluoro-benzyl ester], the half-inhibitory concentration (IC50) is, setting by setting: under setting [1], 1 µM; under setting [2], less than 1 µM.

Turning to `CC1=C(C(=O)OCCCc2ccc(C(F)(F)F)cc2)CNC(=S)N1` [Compound 107, 6-methyl-2-thioxo-1,2,3,4-tetrahydro-pyrimidine-5-carboxylic acid 3-(4-trifluoromethyl-phenyl)-propyl ester], the IC50 runs as follows: under setting [1], less than 0.4 µM; under setting [2], less than 1 µM.

On to `CC1=C(C(=O)OCCc2ccc(Cl)cc2Cl)C(CO)NC(=S)N1` (stereo not shown) [43″, 4-hydroxymethyl-6-methyl-2-thioxo-1,2,3,4-tetrahydro-pyrimidine-5-carboxylic acid 2-(2,4-dichloro-phenyl)-ethyl ester], for which the IC50 is, setting by setting: under setting [1], less than 0.4 µM; under setting [2], less than 1 µM.

Turning to `CC1=C(C(=O)OCc2ccc(OCC(C)C)cc2)CNC(=S)N1` [Compound 72, 6-methyl-2-thioxo-1,2,3,4-tetrahydro-pyrimidine-5-carboxylic acid 4-isobutoxy-benzyl ester], the IC50 by setting is: under setting [1], less than 0.5 µM; under setting [2], less than 1 µM.

For `COc1ccccc1CCOC(=O)C1=C(C)NC(=S)NC1` [Compound 115, 6-methyl-2-thioxo-1,2,3,4-tetrahydro-pyrimidine-5-carboxylic acid 2-(2-methoxy-phenyl)-ethyl ester], the IC50 is, setting by setting: under setting [1], 0.7 µM; under setting [2], less than 1 µM.

Turning to `CC1=C(C(=O)OCC2CC=CCC2)CNC(=S)N1` (stereo not shown) [3′, 6-methyl-2-thioxo-1,2,3,4-tetrahydro-pyrimidine-5-carboxylic acid cyclohex-3-enylmethyl ester], the IC50 was 0.7 µM under setting [1] and less than 1 µM under setting [2].

As to `CC1=C(C(=O)OCCc2c(F)cccc2Cl)C(CF)NC(=S)N1` (stereo not shown) [87′, 4-fluoromethyl-6-methyl-2-thioxo-1,2,3,4-tetrahydro-pyrimidine-5-carboxylic acid 2-(2-chloro-6-fluoro-phenyl)-ethyl ester], the IC50 reads like this: under setting [1], less than 0.4 µM; under setting [2], less than 1 µM.

Regarding `CC1=C(C(=O)OCc2cccc(F)c2)CNC(=S)N1` [Compound 83, 6-methyl-2-thioxo-1,2,3,4-tetrahydro-pyrimidine-5-carboxylic acid 3-fluoro-benzyl ester], the IC50 is, setting by setting: under setting [1], 1 µM; under setting [2], less than 1 µM.

As to `CC1=C(C(=O)OCCCCc2ccsc2)C(CF)NC(=S)N1` (stereo not shown) [61′, 4-fluoromethyl-6-methyl-2-thioxo-1,2,3,4-tetrahydro-pyrimidine-5-carboxylic acid 4-thiophen-3-yl-butyl ester], the IC50 was 3 µM under setting [1] and 1 to 10 µM under setting [2].

Regarding `CC1=C(C(=O)OCCc2cccc([N+](=O)[O-])c2)C(COC(=O)c2ccc(C(=O)O)cc2)NC(=S)N1` (stereo not shown) [90″, terephthalic acid mono-{6-methyl-5-[2-(3-nitro-phenyl)-ethoxycarbonyl]-2-thioxo-1,2,3,4-tetrahydro-pyrimidin-4-ylmethyl}ester], the IC50 reads like this: under setting [1], 6.9 µM; under setting [2], 1 to 10 µM.

For `CC1=C(C(=O)OCCCCCc2ccccc2)C(CO)NC(=S)N1` (stereo not shown) [18″, 4-hydroxymethyl-6-methyl-2-thioxo-1,2,3,4-tetrahydro-pyrimidine-5-carboxylic acid 5-phenyl-pentyl ester], the IC50 by setting is: under setting [1], less than 0.4 µM; under setting [2], less than 1 µM.

On to `CC(C)=CCOC(=O)C1=C(C)NC(=S)NC1` [Compound 53, 6-methyl-2-thioxo-1,2,3,4-tetrahydro-pyrimidine-5-carboxylic acid 3-methyl-but-2-enyl ester], for which the IC50 turned out to be 6.6 µM. Further, the IC50 (read-out: Level (IC50 values classified)) lay within 1 to 10 µM.

For the compound `CC1=C(C(=O)OCc2ccco2)CNC(=S)N1` [Compound 12, 6-methyl-2-thioxo-1,2,3,4-tetrahydro-pyrimidine-5-carboxylic acid furan-2-ylmethyl ester], the IC50 was 22 µM under setting [1] and 10 to 20 µM under setting [2].

As to `CC1=C(C(=O)OCCCc2ccncc2)CNC(=S)N1` [Compound 13, 6-methyl-2-thioxo-1,2,3,4-tetrahydro-pyrimidine-5-carboxylic acid 3-pyridin-4-yl-propyl ester], the half-inhibitory concentration (IC50) is, setting by setting: under setting [1], greater than 100 µM; under setting [2], greater than 20 µM.

With `CC1=C(C(=O)OCc2ccc(-c3cccs3)s2)C(CF)NC(=S)N1` (stereo not shown) [62′, 4-fluoromethyl-6-methyl-2-thioxo-1,2,3,4-tetrahydro-pyrimidine-5-carboxylic acid [2,2′]bithiophenyl-5-ylmethyl ester], the IC50 was 2 µM under setting [1] and 1 to 10 µM under setting [2].

Take `CC1=C(C(=O)OCc2cc(C)ccc2C)CNC(=S)N1` [Compound 149, 6-methyl-2-thioxo-1,2,3,4-tetrahydro-pyrimidine-5-carboxylic acid 2,5-dimethyl-benzyl ester]: the IC50 reads like this: under setting [1], less than 0.4 µM; under setting [2], less than 1 µM.

In the case of `CC1=C(C(=O)OCc2scc(C)c2Cl)C(CF)NC(=S)N1` (stereo not shown) [15′, 4-fluoromethyl-6-methyl-2-thioxo-1,2,3,4-tetrahydro-pyrimidine-5-carboxylic acid 3-chloro-4-methyl-thiophen-2-ylmethyl ester], the half-maximal inhibitory concentration (IC50) reads like this: under setting [1], 1 µM; under setting [2], less than 1 µM.

For `CC1=C(C(=O)OCCOCCc2ccsc2)CNC(=S)N1` [54′, 6-methyl-2-thioxo-1,2,3,4-tetrahydro-pyrimidine-5-carboxylic acid 2-(2-thiophen-3-yl-ethoxy)-ethyl ester], the IC50 under setting [1] was 5 µM and the IC50 under setting [2] was in the range of 1 to 10 µM.

With `CC1=C(C(=O)OCc2ccccc2)C(CO)NC(=S)N1` (stereo not shown) [8″, 4-hydroxymethyl-6-methyl-2-thioxo-1,2,3,4-tetrahydro-pyrimidine-5-carboxylic acid benzyl ester], the IC50 reads like this: under setting [1], greater than 100 µM; under setting [2], greater than 20 µM.

As to `CCCCCCOC(=O)C1=C(C)NC(=S)NC1` [Compound 30, 6-methyl-2-thioxo-1,2,3,4-tetrahydro-pyrimidine-5-carboxylic acid hexyl ester], the IC50 under setting [1] stood at 0.1 µM and the IC50 under setting [2] is less than 1 µM.

`CC1=C(C(=O)OCc2cc(C)cc(C)c2)CNC(=S)N1` [Compound 82, 6-methyl-2-thioxo-1,2,3,4-tetrahydro-pyrimidine-5-carboxylic acid 3,5-dimethyl-benzyl ester]: the IC50 under setting [1] was 0.3 µM and the IC50 under setting [2] was less than 1 µM.

As for `CC1=C(C(=O)OCC2CCCC2)CNC(=S)N1` [Compound 68, 6-methyl-2-thioxo-1,2,3,4-tetrahydro-pyrimidine-5-carboxylic acid cyclopentylmethyl ester], the IC50 is 0.7 µM under setting [1] and less than 1 µM under setting [2].

Regarding `CC1=C(C(=O)OCCc2ccsc2)[C@@H](CF)NC(=S)N1` [25′, (S)-4-fluoromethyl-6-methyl-2-thioxo-1,2,3,4-tetrahydro-pyrimidine-5-carboxylic acid 2-thiophen-3-yl-ethyl ester], the IC50 by setting is: under setting [1], 4.9 µM; under setting [2], 1 to 10 µM.

In the case of `CC1=C(C(=O)OCc2cc(F)cc(F)c2)C(CO)NC(=S)N1` (stereo not shown) [71″, 4-hydroxymethyl-6-methyl-2-thioxo-1,2,3,4-tetrahydro-pyrimidine-5-carboxylic acid 3,5-difluoro-benzyl ester], the IC50 runs as follows: under setting [1], greater than 100 µM; under setting [2], greater than 20 µM.
